Measured values reported in ChEMBL document CHEMBL1201862, “PubChem BioAssay data set” (2004).
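Results reflect a 48-hour exposure of cells in 96-well plates to compound at five concentrations. Abbreviation: GI50, concentration required for 50% inhibition of growth.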 Active and inactive are the calls of the source. Cut-off read from the data, not from the text of the source: active = GI50 up to about 1.1 µM and inactive = higher. Where a SMILES comes first, the peptide text is derived from it. [ ]: non-standard residue; d: D form. 2Nal = N[CH](Cc1ccc2ccccc2c1)C(=O)O

How the values were obtained:
Experiment in all cases: inhibition of tumour cell growth, NCI panel, 48 h
786-0 = test system: 786-0
A498 = test system: A498
ACHN = test system: ACHN
COLO 205 = test system: COLO 205
DU-145 = test system: DU-145
HOP-62 = test system: HOP-62
HT-29 = test system: HT-29
IGROV-1 = test system: IGROV-1
K562 = test system: K562
LOX IMVI = test system: LOX IMVI
NCI-H23 = test system: NCI-H23
NCI-H522 = test system: NCI-H522
OVCAR-3 = test system: OVCAR-3
PC-3 = test system: PC-3
RPMI-8226 = test system: RPMI-8226
RXF 393 = test system: RXF 393
SK-MEL-28 = test system: SK-MEL-28
SK-MEL-5 = test system: SK-MEL-5
SK-OV-3 = test system: SK-OV-3
UACC-62 = test system: UACC-62

| Structure (SMILES) | GI50 (786-0) | GI50 (A498) | GI50 (ACHN) | GI50 (COLO 205) | GI50 (DU-145) | GI50 (HOP-62) | GI50 (HT-29) | GI50 (IGROV-1) | GI50 (K562) | GI50 (LOX IMVI) | GI50 (NCI-H23) | GI50 (NCI-H522) | GI50 (OVCAR-3) | GI50 (PC-3) | GI50 (RPMI-8226) | GI50 (RXF 393) | GI50 (SK-MEL-28) | GI50 (SK-MEL-5) | GI50 (SK-OV-3) | GI50 (UACC-62) |
| --- | --- | --- | --- | --- | --- | --- | --- | --- | --- | --- | --- | --- | --- | --- | --- | --- | --- | --- | --- | --- |
| Nc1cccnc1NCC1(CO)CCCC1 | > 100 µM (inactive) | > 100 µM (inactive) | > 100 µM (inactive) | > 100 µM (inactive) | > 100 µM (inactive) | > 100 µM (inactive) | > 100 µM (inactive) | > 100 µM (inactive) | > 100 µM (inactive) | > 100 µM (inactive) | > 100 µM (inactive) | > 100 µM (inactive) | > 100 µM (inactive) | > 100 µM (inactive) | > 100 µM (inactive) | > 100 µM (inactive) | > 100 µM (inactive) | > 100 µM (inactive) | > 100 µM (inactive) | > 100 µM (inactive) |
| CC(=O)CC(OC(C)=O)C1=CCC2C(CC1C)OC(=O)C2C (stereo not given) | > 100 µM (inactive) | > 100 µM (inactive) | > 100 µM (inactive) | > 100 µM (inactive) | > 100 µM (inactive) | > 100 µM (inactive) | > 100 µM (inactive) | > 100 µM (inactive) | > 100 µM (inactive) | 88.5 µM (inactive) | > 100 µM (inactive) | > 100 µM (inactive) | > 100 µM (inactive) | > 100 µM (inactive) | > 100 µM (inactive) | > 100 µM (inactive) | > 100 µM (inactive) | > 100 µM (inactive) | > 100 µM (inactive) | > 100 µM (inactive) |
| Cc1ccc2nc3n(c2c1)C(c1c(F)cccc1F)SC3 (stereo not given) | > 100 µM (inactive) | > 100 µM (inactive) | > 100 µM (inactive) | > 100 µM (inactive) | > 100 µM (inactive) | > 100 µM (inactive) | > 100 µM (inactive) | > 100 µM (inactive) | > 100 µM (inactive) | > 100 µM (inactive) | > 100 µM (inactive) | 55.5 µM (inactive) | > 100 µM (inactive) | > 100 µM (inactive) | > 100 µM (inactive) | > 100 µM (inactive) | > 100 µM (inactive) | > 100 µM (inactive) | > 100 µM (inactive) | > 100 µM (inactive) |
| OCC(CCc1ccccc1I)C1=CCC2(CC1)OCCO2 (stereo not given) | 19.9 µM (inactive) | 24.1 µM (inactive) | 28.7 µM (inactive) | 20.1 µM (inactive) | 19.5 µM (inactive) | 18.2 µM (inactive) | 18.2 µM (inactive) | 16.7 µM (inactive) | > 100 µM (inactive) | 14.9 µM (inactive) | 20.5 µM (inactive) | 15.2 µM (inactive) | 18.6 µM (inactive) | 22.4 µM (inactive) | 53.6 µM (inactive) | 14.9 µM (inactive) | 17.7 µM (inactive) | 14.6 µM (inactive) | 39 µM (inactive) | 16.4 µM (inactive) |
| COc1cc2c(cc1OC)C(=O)N(c1ccc(OCCN3CCCC3)cc1)C2 | > 100 µM (inactive) | > 100 µM (inactive) | > 100 µM (inactive) | > 100 µM (inactive) | > 100 µM (inactive) | > 100 µM (inactive) | > 100 µM (inactive) | > 100 µM (inactive) | > 100 µM (inactive) | > 100 µM (inactive) | > 100 µM (inactive) | > 100 µM (inactive) | > 100 µM (inactive) | > 100 µM (inactive) | > 100 µM (inactive) | > 100 µM (inactive) | > 100 µM (inactive) | > 100 µM (inactive) | > 100 µM (inactive) | > 100 µM (inactive) |
| NC1=Nc2ccccc2Sc2cccc(F)c21 | > 100 µM (inactive) | 34.4 µM (inactive) | > 100 µM (inactive) | 61.7 µM (inactive) | > 100 µM (inactive) | > 100 µM (inactive) | > 100 µM (inactive) | > 100 µM (inactive) | 37.2 µM (inactive) | 99.5 µM (inactive) | 48.6 µM (inactive) | 64.4 µM (inactive) | 44 µM (inactive) | 63.5 µM (inactive) | 36 µM (inactive) | 24.9 µM (inactive) | > 100 µM (inactive) | 38 µM (inactive) | > 100 µM (inactive) | 60.3 µM (inactive) |
| CC1=NNC(=O)C1C1(C(=O)O)CC(c2c[nH]c3ccccc23)=NC(=S)N1 (stereo not given) | 28.3 µM (inactive) | 94.8 µM (inactive) | 33.5 µM (inactive) | 17.1 µM (inactive) | 35.6 µM (inactive) | 20 µM (inactive) | 26.3 µM (inactive) | 0.224 µM (active) | 25.4 µM (inactive) | 17.5 µM (inactive) | 22.1 µM (inactive) | 20 µM (inactive) | 18.5 µM (inactive) | 27.5 µM (inactive) | 24.9 µM (inactive) | 28.1 µM (inactive) | 47.1 µM (inactive) | 14.4 µM (inactive) | 32.1 µM (inactive) | 41.2 µM (inactive) |
| CC(=O)Nc1ccc(C2SCc3nc4ccccc4n32)cc1 (stereo not given) | 56.8 µM (inactive) | 4.91 µM (inactive) | 96.4 µM (inactive) | > 100 µM (inactive) | > 100 µM (inactive) | > 100 µM (inactive) | > 100 µM (inactive) | > 91 µM (inactive) | 66.8 µM (inactive) | 63.8 µM (inactive) | 34.6 µM (inactive) | 66.5 µM (inactive) | > 100 µM (inactive) | 87.7 µM (inactive) | 47.6 µM (inactive) | > 100 µM (inactive) | > 100 µM (inactive) | 60.1 µM (inactive) | > 100 µM (inactive) | > 100 µM (inactive) |
| O=C1CCc2ccc(O)c(c2)Oc2ccc(cc2)C(Sc2ccccc2)CCO1 (stereo not given) | 16 µM (inactive) | 17.4 µM (inactive) | 15.1 µM (inactive) | 17.3 µM (inactive) | 17.8 µM (inactive) | 12.9 µM (inactive) | 15.9 µM (inactive) | 13.3 µM (inactive) | 15.7 µM (inactive) | 12.5 µM (inactive) | 13.1 µM (inactive) | 13.2 µM (inactive) | 10.9 µM (inactive) | 6.32 µM (inactive) | 13.5 µM (inactive) | 17.8 µM (inactive) | 15.4 µM (inactive) | 12.1 µM (inactive) | 34.3 µM (inactive) | 15.1 µM (inactive) |
| CC(NC(=O)C(N)Cc1ccccc1)C(=O)NC(Cc1ccc(O)cc1)C(=O)NC(Cc1c[nH]c2ccccc12)C(=O)NC(CCCCN)C(=O)NC(C(=O)NC(C)C(=O)NC(Cc1ccc2ccccc2c1)C(N)=O)C(C)C (stereo not given) (H-FAYWKVA[2Nal]-NH2; configuration not given here) | > 12.5 µM (inactive) | > 12.5 µM (inactive) | > 12.5 µM (inactive) | > 12.5 µM (inactive) | > 12.5 µM (inactive) | > 12.5 µM (inactive) | > 12.5 µM (inactive) | > 12.5 µM (inactive) | > 12.5 µM (inactive) | > 12.5 µM (inactive) | > 12.5 µM (inactive) | > 12.5 µM (inactive) | > 12.5 µM (inactive) | > 12.5 µM (inactive) | > 12.5 µM (inactive) | > 12.5 µM (inactive) | > 12.5 µM (inactive) | > 12.5 µM (inactive) | > 12.5 µM (inactive) | > 12.5 µM (inactive) |
| CC[C@]12CCCN3CCc4c(n(c5ccccc45)C(=O)C1)[C@@H]32 [VINBURNINE] | 10.1 µM (inactive) | 14.4 µM (inactive) | 32.4 µM (inactive) | 4.43 µM (inactive) | 19.2 µM (inactive) | 4.76 µM (inactive) | 3.56 µM (inactive) | 5.85 µM (inactive) | 2.9 µM (inactive) | 10 µM (inactive) | 13.7 µM (inactive) | 2.32 µM (inactive) | 2.44 µM (inactive) | 18.2 µM (inactive) | 4.56 µM (inactive) | 15.6 µM (inactive) | > 36.5 µM (inactive) | 5.05 µM (inactive) | 10.8 µM (inactive) | 5.82 µM (inactive) |
